These results are taken from ChEMBL document CHEMBL6109180, “De Novo-Designed APC/C Inhibitors Provide a Rationale for Targeting RING-Type E3 Ubiquitin Ligases” (J Med Chem, 2025).

Series [1] can be described thus: Drug localization in human HeLa cells assessed as punctate pattern formation at 50 uM incubated for 10 hrs by AF488 dye based analysis. In kind it is ADME, cell-based.
Series [2] relates to HeLa. The series is described as follows: Inhibition of recombinant APC/C/cdc20 (unknown origin) in metaphase-synchronized human HeLa cells co-expressing GST-tagged UBA1/UBE2D1/methylated ubiquitin using RD680-labeled securin as substrate at 100 uM measured after 45 mins in presence of ATP by immuno-precipitation method. In kind it is cell-based.
Series [3] has as its system HeLa. The series is described as follows: Inhibition of recombinant APC/C/cdc20 (unknown origin) in metaphase-synchronized human HeLa cells co-expressing GST-tagged UBA1/UBE2C/methylated ubiquitin using RD680-labeled securin as substrate at 100 uM measured after 45 mins in presence of ATP by immuno-precipitation method. In kind it is cell-based.
Series [4] deals with Anaphase-promoting complex subunit 11 (Homo sapiens) (UniProt Q9NYG5). The series is described as follows: Binding affinity to APC11 (unknown origin) assessed as binding free energy.
The subject of series [5] is TERT-RPE1. Kind of series: Effect on time length of mitosis in human RPE-1 cells at 50 uM measured for 10 to 24 hrs by bright field microscopy. In kind it is functional, cell-based. Particulars: time 10-24 hrs.
Series [6] deals with HeLa. Kind of series: Inhibition of recombinant APC/C/cdc20 (unknown origin) in metaphase-synchronized human HeLa cells co-expressing GST-tagged UBA1/UBE2C/methylated ubiquitin using RD680-labeled securin as substrate assessed as maximum inhibition at 100 uM measured after 15 mins in presence of ATP by immuno-precipitation method. In kind it is cell-based.

Active and inactive are the calls of the source. No cut-off for these calls is given here. Numbered stars: 1 amine (or outer) side, 2 acyl side, 3 side chain; on linkers, the order of the positions; unused ones are H or OH. Bridge positions count the residues as written; N and C are the ends. Square brackets hold non-standard residues; d marks the D form. Peptide text beside a SMILES is read from it. X2 = C[C@@](CCCCC=[*:3])(N[*:1])C(=O)[*:2]; R8 = C=CCCCCCC[C@@](C)(N)C(=O)O; S5 = C=CCCC[C@](C)(N)C(=O)O; Pra = C#CC[C@H](N)C(=O)O

Sequence of Anaphase-promoting complex subunit 11 (Homo sapiens) (Q9NYG5 whole entry, one chain of several): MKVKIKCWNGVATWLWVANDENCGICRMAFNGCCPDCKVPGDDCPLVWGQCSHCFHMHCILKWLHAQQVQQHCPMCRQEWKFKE

In the case of `C#CC[C@H](NC(=O)[C@H](Cc1c[nH]c2ccccc12)NC(=O)[C@H](CCC(=O)O)NC(C)=O)C(=O)N[C@]1(C)CCCCCC/C=C\CCCC[C@@](C)(C(=O)N[C@@H](CCCNC(=N)N)C(=O)N[C@@H](CCCNC(=N)N)C(=O)N[C@@H](C)C(N)=O)NC(=O)[C@H](CCCNC(=N)N)NC(=O)[C@H](CCC(N)=O)NC(=O)[C@H]([C@@H](C)CC)NC(=O)[C@H](CCC(=O)O)NC(=O)[C@H](CCCCN)NC(=O)[C@H]([C@@H](C)CC)NC1=O` (Ac-EW[Pra][R8]IKEIQR[X2]RRA-NH2; staple (Z) 4-11), in series [1], the Drug uptake entry is “Active”.
With `C[C@@H](O)[C@H](NC(=O)[C@H](CC(=O)O)NC(=O)CN)C(=O)N[C@H]1CSSC[C@@H](C(=O)N[C@@H](CCC(N)=O)C(=O)N[C@@H](CCCNC(=N)N)C(=O)N[C@@H](Cc2cnc[nH]2)C(=O)O)NC(=O)[C@H](CC(N)=O)NC(=O)[C@H](Cc2c[nH]c3ccccc23)NC(=O)[C@H](CCCNC(=N)N)NC(=O)[C@H](Cc2c[nH]c3ccccc23)NC(=O)[C@H]([C@@H](C)O)NC(=O)[C@H](CCC(=O)O)NC(=O)[C@@H]2CCCN2C(=O)[C@H](CC(=O)O)NC(=O)[C@H](CC(=O)O)NC1=O` (H-GDTCDDPETWRWNCQRH-OH; disulfide 4-14), the inhibition result in series [2] and in series [3] was “Active” each time. For the same compound, the deltaG in series [4] is -29.4 kcal/mol.
For `CC(=O)N[C@@H](CCCNC(=N)N)C(=O)N[C@H]1CSSC[C@@H](C(=O)N[C@@H](CCCNC(=N)N)C(N)=O)NC(=O)[C@H](Cc2c[nH]c3ccccc23)NC(=O)[C@H](Cc2ccccc2)NC(=O)[C@H]([C@@H](C)O)NC(=O)[C@H](CCC(=O)O)NC(=O)[C@@H]2CCCN2C(=O)CNC(=O)[C@H](Cc2c[nH]c3ccccc23)NC(=O)[C@H](CO)NC1=O` (Ac-RCSWGPETFWCR-NH2; disulfide 2-11), the inhibition result in series [2] and in series [3] was “Active” each time. The deltaG in series [4] is -24.2 kcal/mol.
As to `CC[C@H](C)[C@@H]1NC(=O)[C@@](C)(NC(=O)[C@H](CCC(N)=O)NC(=O)[C@@H]2CCCN2C(=O)[C@H](Cc2c[nH]c3ccccc23)NC(=O)[C@H](CCCNC(=N)N)NC(C)=O)CCC/C=C/CCC[C@@](C)(C(=O)N[C@@H](CCC(N)=O)C(=O)N[C@H](C(=O)N[C@@H](CCCNC(=N)N)C(=O)N[C@@H](Cc2c[nH]c3ccccc23)C(=O)N[C@@H](Cc2c[nH]c3ccccc23)C(N)=O)C(C)C)NC(=O)[C@H](CC(=O)O)NC(=O)[C@H](CCCCN)NC1=O` (Ac-RWPQ[S5]IKD[S5]QVRWW-NH2; staple (E) 5-9), the Activity result in series [5] was “No effect”. Besides, in series [3], the inhibition entry was “Active; Compound Exerted Better Inhibitory Effect Than Tame”.
Regarding `CC(=O)N[C@@H](CCCNC(=N)N)C(=O)N[C@H]1CSSC[C@@H](C(=O)N[C@@H](CCCNC(=N)N)C(N)=O)NC(=O)[C@H](Cc2c[nH]c3ccccc23)NC(=O)[C@H](Cc2ccccc2)NC(=O)[C@H]([C@@H](C)O)NC(=O)[C@H](CCCNC(=N)N)NC(=O)[C@@H]2CCCN2C(=O)CNC(=O)[C@H](Cc2c[nH]c3ccccc23)NC(=O)[C@H](Cc2cnc[nH]2)NC1=O` (Ac-RCHWGPRTFWCR-NH2; disulfide 2-11), the inhibition entry in series [6], in series [2] and in series [3] was “Active” in each case. In addition, the deltaG in series [4] was -25.6 kcal/mol.
As for `CC(=O)N[C@@H](CCCNC(=N)N)C(=O)N[C@H]1CSSC[C@@H](C(=O)N[C@@H](CCCNC(=N)N)C(N)=O)NC(=O)[C@H](Cc2c[nH]c3ccccc23)NC(=O)[C@H](Cc2ccccc2)NC(=O)[C@H]([C@@H](C)O)NC(=O)[C@H](CCC(=O)O)NC(=O)[C@@H]2CCCN2C(=O)CNC(=O)[C@H](Cc2c[nH]c3ccccc23)NC(=O)[C@H](Cc2cnc[nH]2)NC1=O` (Ac-RCHWGPETFWCR-NH2; disulfide 2-11), the inhibition result in series [2] and in series [3] was “Active” each time. For the same compound, in series [4], the deltaG was -21.1 kcal/mol.
For `C[C@@H](O)[C@H](NC(=O)[C@H](CCCNC(=N)N)NC(=O)[C@@H]1CSSC[C@H](NC(=O)[C@H](CCCNC(=N)N)NC(=O)CN)C(=O)N[C@@H](Cc2cnc[nH]2)C(=O)N[C@@H](Cc2c[nH]c3ccccc23)C(=O)NCC(=O)N2CCC[C@H]2C(=O)N[C@@H](CCC(=O)O)C(=O)N[C@@H]([C@@H](C)O)C(=O)N[C@@H](Cc2ccccc2)C(=O)N[C@@H](Cc2c[nH]c3ccccc23)C(=O)N1)C(=O)O` (H-GRCHWGPETFWCRT-OH; disulfide 3-12), the inhibition result in series [2] was “Active”. In addition, in series [4], the deltaG was -19.4 kcal/mol.
With `CC[C@H](C)[C@@H]1NC(=O)[C@H](CCC(=O)O)NC(=O)[C@H](CC(C)C)NC(=O)[C@@H](CCCCN)NC(=O)[C@](C)(NC(=O)[C@H](Cc2c[nH]c3ccccc23)NC(=O)[C@H](Cc2c[nH]c3ccccc23)NC(=O)[C@H](CCC(=O)O)NC(C)=O)CCCCCC/C=C\CCC[C@@](C)(C(=O)N[C@@H](CCCNC(=N)N)C(=O)N[C@@H](CCCNC(=N)N)C(=O)N[C@@H](C)C(N)=O)NC(=O)[C@H](CCCNC(=N)N)NC(=O)[C@H](CCC(N)=O)NC1=O`, the Activity result in series [5] was “No effect”. Besides, in series [3], the inhibition result is “Active; Compound Exerted Better Inhibitory Effect Than Tame”.
Take `CC(=O)N[C@H](C(=O)N[C@@H](Cc1cnc[nH]1)C(=O)N[C@H]1CSSC[C@@H](C(=O)N[C@@H](CCC(N)=O)C(=O)N[C@@H](CCCNC(=N)N)C(=O)N[C@H](C(N)=O)C(C)C)NC(=O)[C@H](CC(N)=O)NC(=O)[C@H](Cc2c[nH]c3ccccc23)NC(=O)[C@H](CCCNC(=N)N)NC(=O)[C@H](Cc2c[nH]c3ccccc23)NC(=O)[C@H]([C@@H](C)O)NC(=O)[C@H](CCC(=O)O)NC(=O)[C@@H]2CCCN2C(=O)[C@H](CC(=O)O)NC(=O)[C@H](CC(=O)O)NC1=O)[C@@H](C)O` (Ac-THCDDPETWRWNCQRV-NH2; disulfide 3-13): the inhibition result in series [6], in series [2] and in series [3] was “Active” in each case. For the same compound, in series [4], the deltaG was -29.4 kcal/mol.
As for `CC(=O)N[C@H]1CSSC[C@@H](C(=O)N[C@@H](CCC(=O)O)C(=O)N[C@@H](Cc2c[nH]c3ccccc23)C(=O)N[C@@H](CCCNC(=N)N)C(=O)N[C@@H](Cc2ccc(O)cc2)C(N)=O)NC(=O)[C@H](Cc2cnc[nH]2)NC(=O)[C@H](Cc2c[nH]c3ccccc23)NC(=O)[C@H](CCC(N)=O)NC(=O)[C@H](CO)NC(=O)[C@@H]2CCCN2C(=O)CNC(=O)[C@H](C)NC(=O)[C@H](CCC(=O)O)NC1=O` (Ac-CEAGPSQWHCEWRY-NH2; disulfide 1-10), in series [2], the inhibition result is “inactive”. Moreover, the deltaG in series [4] was -19.6 kcal/mol.
Turning to `CC(=O)N[C@@H](CCCNC(=N)N)C(=O)N[C@@H](Cc1c[nH]c2ccccc12)C(=O)N1CCC[C@H]1C(=O)N[C@@H](CCC(N)=O)C(=O)N[C@@]1(C)CCC/C=C/CCC[C@@](C)(C(=O)N[C@@H](CCC(N)=O)C(=O)N[C@H](C(=O)N[C@@H](CCCNC(=N)N)C(=O)N[C@@H](CCCNC(=N)N)C(=O)N[C@@H](Cc2c[nH]c3ccccc23)C(N)=O)C(C)C)NC(=O)[C@H](CC(=O)O)NC(=O)[C@H](Cc2c[nH]c3ccccc23)NC(=O)[C@H](CCCCN)NC1=O` (Ac-RWPQ[S5]KWD[S5]QVRRW-NH2; staple (E) 5-9), the Activity result in series [5] is “No effect”. Besides, the inhibition entry in series [3] is “Active; Compound Exerted Better Inhibitory Effect Than Tame”.
For `CC(=O)N[C@@H](CCCNC(=N)N)C(=O)N[C@@H](CCCNC(=N)N)C(=O)N[C@@H](CCCCN)C(=O)N[C@]1(C)CCCCCC/C=C\CCC[C@@](C)(C(=O)N[C@H](C(=O)N[C@@H](CCCNC(=N)N)C(=O)N[C@@H](Cc2ccc(O)cc2)C(N)=O)C(C)C)NC(=O)[C@H](CCCNC(=N)N)NC(=O)[C@H](C)NC(=O)[C@H](CCCNC(=N)N)NC(=O)[C@H](CCC(=O)O)NC(=O)[C@H](CCC(N)=O)NC(=O)[C@H](C)NC1=O` (Ac-RRK[R8]AQERAR[S5]VRY-NH2; staple (Z) 4-11), in series [3], the inhibition entry was “inactive”.
The same measure, in the same setting: under `CC(=O)N[C@@H](CCC(=O)O)C(=O)N[C@@H](Cc1c[nH]c2ccccc12)C(=O)N[C@@H](Cc1c[nH]c2ccccc12)C(=O)N[C@]1(C)CCCCCC/C=C\CCC[C@@](C)(C(=O)N[C@@H](CCCNC(=N)N)C(=O)N[C@@H](CCCNC(=N)N)C(=O)N[C@@H](C)C(N)=O)NC(=O)[C@H](CCCNC(=N)N)NC(=O)[C@H](CCC(N)=O)NC(=O)[C@H](CC(C)C)NC(=O)[C@H](CCC(=O)O)NC(=O)[C@H](CC(C)C)NC(=O)[C@H](CCCCN)NC1=O` (Ac-EWW[R8]KLELQR[S5]RRA-NH2; staple (Z) 4-11) stands “Active; Compound Exerted Better Inhibitory Effect Than Tame”.
As for `CC(=O)N[C@H]1CSSC[C@@H](C(=O)N[C@H](C(=O)N[C@@H](Cc2c[nH]c3ccccc23)C(=O)N[C@@H](CCCNC(=N)N)C(=O)N[C@@H](Cc2ccc(O)cc2)C(N)=O)[C@@H](C)O)NC(=O)[C@H](Cc2cnc[nH]2)NC(=O)[C@H](Cc2c[nH]c3ccccc23)NC(=O)[C@H](CCC(N)=O)NC(=O)[C@H](CO)NC(=O)[C@@H]2CCCN2C(=O)CNC(=O)[C@H](C)NC(=O)[C@H](CCC(=O)O)NC1=O` (Ac-CEAGPSQWHCTWRY-NH2; disulfide 1-10), the inhibition entry in series [2] was “inactive”. Further, the deltaG in series [4] was -18.3 kcal/mol.
